Data reported in US7030087B2, “Synthetic approach to designed chemical structures” (priority 1996, dated 2006).
Marks after values point to notes of the source that are not given here. No end group written: not given here.

B1: βpep-8 (peptide)
peptide: ANIKLSVEMKLFKRHLKWKIIVKLNDGRELSLD-NH2
modifications: not fully specified
notes: Synthetic 33-mer designed de novo; It is entered as the monomer chain
B2: βpep-4 (peptide)
peptide: SIQDLNVSMKLFRKQAKWKINVKLNDGRELSLD-NH2
modifications: also: β-sheet sandwich tetramer
notes: as for B1
B3: βpep-1 (peptide)
peptide: SIQDLNVSMKLFRKQAKWKIIVKLNDGRELSLD-NH2
modifications: not fully specified
notes: as for B1

Experiments:
RAW 264.7 cells = experiment: LPS-induced secretion of TNF-α in vitro by RAW 264.7 cells; type: cell-based; conditions: 200 ng/ml E. coli 0111:B4 LPS preincubated with 10^−5 M peptide, 3 hours; compared to BG22, p=0.04
Protocol: […] RAW 264.7 cells were placed in each well of a 24-well culture plate and allowed to adhere. Immediately before LPS stimulation, medium was removed and cells were washed in serum-free Dulbecco's modified Eagle's medium (DMDM). Cells were incubated at 37° C. in a 10% CO2 atmosphere for 3 hours with: 1) DMEM alone, 2) E. coli 0111:B4 LPS alone, or 3) E. coli 0111:B4 LPS preincubated with BG22, βpep-3 or BG16. The concentration of LPS used in all groups was 200 ng/ml. To avoid non-specific inhibition of LPS-induced TNF-α secretion, 10^−5 M of each peptide was used in the experimental wells. At the end of the incubation period, macrophage supernatants were collected and assayed for TNF-α concentration.
TNF-α concentrations were measured as described by Battafarano et al. (supra). Briefly, the TNF-α sensitive cell line WEHI was used in all assays of either RAW cell supernatant (in vitro) or serum (in vivo animal model). Concentrations were extrapolated from a standard curve based oil dilutions of purified TNF-α (Genzyme, Cambridge, Mass.), and all samples were examined in triplicate. Viability of the WEHI cells was assessed by measuring the extent of cellular crystal violet uptake by spectrophotometry at 590 nm. In this assay, absorbance was inversely correlated with cell death and lysis resulting from exposure of WEHI cells to TNF-α. […]

P. aeruginosa = experiment: Bactericidal activity assay; type: cell-based, Pseudomonas aeruginosa type 1; conditions: 1.2 × 10^−7 M Peptide; 5 × 105 P. aeruginosa
Source text: Bacteria: P. aeruginosa type 1 is a clinical isolate maintained in the laboratory. The isolate remains a smooth strain and was serotyped by the scheme of Homma. The Pseudomonas strain was maintained by monthly transfer on blood agar plates.
The peptides can be assayed for bactericidal activity against a variety of organisms such as Pseudomonas aeruginosa type 1, P. cepacia ATCC 25608, E. coli B, and Staphylococcus aureus 502A by standard methods.
Pseudomonas aeruginosa type 1 is a clinical isolate. The isolate remains a smooth strain and was serotyped by the scheme of Homma (Jpn. J. Exp. Med. 46:329, 1976). A rough strain, E. coli B and S. aureus 502A were obtained from Paul Quie, University of Minnesota (Minneapolis, Minn.). The characteristics of the S. aureus strain have been described by Shinefield et al. (Amer. J. Dis. Chil. 105:646, 1963). Pseudomonas cepacia ATCC 25608 can be purchased from the ATCC. S. aureus and E. coli were maintained on nutrient agar plates and the Pseudomonas strains were maintained on blood agar plates.
Pyrogen-free solutions were used throughout the assay and all methods that follow. Log phase bacteria were prepared from a culture in brain heart infusion broth (Hovde et al. Infect. Immun. 54:142–148, 1986) and bacteria were washed and resuspended in saline with adjustment to an optical density at 650 nm to provide a yield of about 3×10^8 CFU/ml. Bacteria were diluted 1:10 in 0.08M citrate phosphate buffer, pH 5.6 or pH 7.0, for use in the assay. S. aureus rapidly lost viability in the pH 5.6 buffer and was studied only at pH 7.0. Bactericidal activity was determined by dose response over peptide concentrations ranging from about […] to about 4.1×10^−9M. Bactericidal activity was determined by dose response, preferably determining LD50 by linear regression.

[1] = system: Pseudomonas aeruginosa LPS; experiment: Endotoxemia in vivo, serum endotoxin levels; parameters: unit not given here; conditions: iv 125 μg peptide preincubated with 2 μg LPS per mouse
Protocol: (§1) LPS derived from P. aeruginosa and E. coli 0111:B4 or 055:B5 was purchased from List Biological Laboratories (Campbell, Calif.) and stored at 4° C. until use. A commercially available chromogenic Limulus amoebocyte lysate test (Whittaker, Walkersville, Md.) was used to measure endotoxin levels in all solutions and serum samples. Endotoxin levels in peptide solutions were determined to be less than about 0.1 ng/ml. The capacity of BG22, βpep-3 and BG16 to neutralize E. coli 055:B5 endotoxin in vitro was determined by mixing 0.01 ng of LPS with 5×10^−6M of each peptide and results were compared to that observed for 0.01 ng of LPS alone.
(§2) To study endotoxemia in a mammal, 500 μg of each peptide was added to 8 μg of Pseudomonas aeruginosa LPS in 2.0 ml of pyrogen-free phosphate buffered saline (PBS) ex vivo, and incubated for 30 minutes on a shaker at room temperature. Each mouse was injected via tail vein with 0.5 ml of the mixture (125 μg of BG22, BG16, or βpep-3 and 2 μg of LPS per mouse). Mice were euthanized at 30, 60, 90 and 120 minutes after injection and serum collected just prior to death was analyzed for endotoxin levels and TNF-α concentration.
All TNF-α and endotoxin measurements in duplicate or triplicate in each experiment. In vivo experiments were performed twice to confirm reproducibility. The results obtained were compared using the unpaired Student's t-test.

[2] = system: endotoxin from E. coli 055:B5; experiment: Limulus amoebocyte lysate assay (E-TOXATE), endotoxin neutralization; type: biochemical; conditions: 5.0 × 10^−6 M Peptide; 0.02 U (0.2 pg) endotoxin from E. coli 055:B5; Table 4
Protocol: The peptides were tested for their ability to neutralize endotoxin. Quantitative endotoxin activities for these peptides were measured by Limulus amoebocyte lysate assay.
Limulus amoebocyte lysate assay: The ability of synthetic peptides to neutralize endotoxin was detected with the E-TOXATE kit manufactured by Sigma Chemicals (St. Louis, Mo.). […] Peptide or B/PI was incubated with LPS at room temperature for 5 min in 100 ul of a 1:2 dilution of pyrogen-free saline (pH 6.4). The reaction was started by addition of 100 ul of amoebocyte lysate and the final volume was 200 ul. Assuming a 10,000 molecular weight for LPS, the approximate molar ration of B/PI:LPS at neutralization was 3000 to 1.
The peptides were tested according to the method provided above. […] BG38L was used as a positive control in these experiments.

E. coli 055:B5 endotoxin = experiment: Chromogenic Limulus amoebocyte lysate test, neutralization of endotoxin in vitro; type: biochemical; conditions: 0.01 ng of LPS mixed with 5×10^−6M peptide
Protocol: as §1

TNF-α = experiment: Endotoxemia in vivo, serum TNF-α levels; parameters: species or system mouse; conditions: 90 minutes post-challenge; compared to mice receiving LPS without peptide, p<0.05
Protocol: TNF-α concentrations were measured as described by Battafarano et al. (supra). Briefly, the TNF-α sensitive cell line WEHI was used in all assays of either RAW cell supernatant (in vitro) or serum (in vivo animal model). Concentrations were extrapolated from a standard curve based oil dilutions of purified TNF-α (Genzyme, Cambridge, Mass.), and all samples were examined in triplicate. Viability of the WEHI cells was assessed by measuring the extent of cellular crystal violet uptake by spectrophotometry at 590 nm. In this assay, absorbance was inversely correlated with cell death and lysis resulting from exposure of WEHI cells to TNF-α. The amount of TNF-α in each experimental sample was extrapolated from the standard curve.
as §2
All TNF-α and endotoxin measurements in duplicate or triplicate in each experiment. […]

[3] = biological target: the molecule itself; experiment: PFG NMR self-diffusion at 2 C; self-association
Protocol: (§3) Pulsed-Field Gradient (PFG) NMR Self-Diffusion Measurements of β-Peptide Series Peptides Pulsed-field gradient (PFG) NMR diffusion measurements (Gibbs, et al. *J. Magn. Reson* 93:395–402, 1991) were performed on βpep peptides to assess self-association properties. Pulsed field gradient (PFG) NMR self-diffusion measurements were made on a Bruker AMX-600 using a GRASP gradient unit. NMR spectra for measurement of diffusion coefficients, D, were acquired using a 5 mm triple-resonance probe equipped with an actively shielded z-gradient coil. […]
(§4) The Stokes-Einstein relationship $D = k_B T / 6\pi \eta R$ was used to relate D to the macro-molecular radius, R, which was considered to be proportional to the square root of the apparent molecular weight, Mapp^{1/2} (Cantor et al. 1980. *The behavior of biological macromolecules*. Biophysical Chemistry, part III. New York: W. H. Freeman. pp. 979–1039). […] Use of the Stokes-Einstein relationship is specifically derived for a hard sphere, and although the actual molecular shape of each peptide aggregate would affect the diffusion coefficient, the maximum change in the ratio $Daggregate/Dmonomer$ would be about 20% in case of an improbable linear peptide tetramer. $Mapp$ for peptides was calculated using D values of lysozyme, ribonuclease and ubiquitin as standards for monomers of known molecular weight.

[4] = biological target: the molecule itself; experiment: PFG NMR self-diffusion, 10 C to 40 C; self-association
Protocol: as §3, §4

[5] = biological target: the molecule itself; experiment: PFG NMR self-diffusion at 30 C, calibrated with lysozyme, ubiquitin and ribonuclease; self-association
Protocol: Reson* 93:395–402, 1991) were performed on βpep peptides to assess self-association properties. Pulsed field gradient (PFG) NMR self-diffusion measurements were made on a Bruker AMX-600 using a GRASP gradient unit. NMR spectra for measurement of diffusion coefficients, D, were acquired using a 5 mm triple-resonance probe equipped with an actively shielded z-gradient coil. […] The PFG longitudinal eddy-current delay pulse-sequence was used for all self-diffusion measurements which were performed in D_2O over the temperature range 275° K to 310° K Peptide concentrations ranged from 3 mg/mL to 10 mg/mL.
The Stokes-Einstein relationship $D = k_B T / 6\pi \eta R$ was used to relate D to the macro-molecular radius, R, which was considered to be proportional to the square root of the apparent molecular weight, Mapp^{1/2} (Cantor et al. 1980. *The behavior of biological macromolecules*. Biophysical Chemistry, part III. New York: W. H. Freeman. pp. 979–1039). Therefore, D is proportional to Mapp^{-1/2}. From these simple relationships, the ratio $Ddimer/Dmonomer$ was 0.71, which is very close to 0.72 theoretically predicted for a two sphere dimer (Wills, et al. *J. Phys. Chem.* 85: 3978–3984, 1981). Use of the Stokes-Einstein relationship is specifically derived for a hard sphere, and although the actual molecular shape of each peptide aggregate would affect the diffusion coefficient, the maximum change in the ratio $Daggregate/Dmonomer$ would be about 20% in case of an improbable linear peptide tetramer. $Mapp$ for peptides was calculated using D values of lysozyme, ribonuclease and ubiquitin as standards for monomers of known molecular weight.
The temperature dependence of diffusion coefficients is plotted in FIG. 4. […] Moreover, for βpep-5, βpep-8 and βpep-1, the temperature dependence was linear and followed the activation energy expected for the self-diffusion of water.

[6] = biological target: the molecule itself; experiment: NMR solution structure; self-association
[7] = biological target: the molecule itself; experiment: PFG NMR self-diffusion; self-association
Protocol: as §3, §4

[8] = 30 minutes after LPS/Peptide injection
[9] = 60 minutes after LPS/Peptide injection
[10] = 90 minutes after LPS/Peptide injection
[11] = 120 minutes after LPS/Peptide injection

Molecule | endotoxemia in vivo, serum endotoxin levels [1, 8] | endotoxemia in vivo, serum endotoxin levels [1, 9] | endotoxemia in vivo, serum endotoxin levels [1, 10] | endotoxemia in vivo, serum endotoxin levels [1, 11] | % Neutralization of Endotoxin (E. coli 055:B5 endotoxin) [%] | average molecular weight (apparent, self-associated state) [5] [Da] | further results
HIKELQVKWKAQKRFLKMSIIVKLNDGRELSLD [βpep-3] | 11* | 37* | 63* | 66* | 81 | – | LPS-induced TNF-α secretion (in words) (RAW 264.7 cells): significantly greater decrease in TNF-α secretion; Bactericidal Activity, % killing (P. aeruginosa): 24.9, n = 3%; Endotoxin Neutralization, % neutralization [2]: 79.4, n = 10%; serum TNF-α levels (in words) (TNF-α): decreased serum TNF-α levels
MNSQVCEKVTNSVSSKLQPYFQTLPVMTKI [BG16] | >10,000 | 2,394 | 5,599 | >10,000 | 0 | – | –
NANIKISGKWKAQKRFLKMSGNFDLSI [BG22, a 27mer, BPI aa 82–108] | 7* | 28* | 73* | 47* | 37 | – | serum TNF-α levels (in words) (TNF-α): decreased serum TNF-α levels
B1 | – | – | – | – | – | 9490 | ratio of apparent molecular weight to calculated monomer molecular weight [3]: 3.7; ratio of apparent molecular weight to calculated monomer molecular weight [4]: 2.4
B2 | – | – | – | – | – | – | binding result [6]: binds
KFIVTLRVIKAGPHSPTAQIIVELKNGRKLSLD-NH2 (not fully specified, It is entered as the monomer chain) [βpep-5] | – | – | – | – | – | 12800 | ratio of average molecular weight to calculated monomer molecular weight [7]: 3.6
B3 | – | – | – | – | – | 13700 | ratio of average molecular weight to calculated monomer molecular weight [7]: 3.6
